Like-named read-outs stand apart in the source and are kept apart here.
What was measured:
Assay type in all cases: cell-based
[1] = tested on: HIV-1 gp160 (HXB2 strain) mediated cell/cell fusion; experiment: Cell/cell fusion assay (HOS hCXCR4/hCCR5/hCD4/pHIV-LTR-luciferase cells with HEK-293 cells expressing HIV-1 tat, rev, gp160), luciferase readout; conditions: Homo sapiens, HEK293, 24 h, read-out: Fusion assay (pIC50) (converted)
From the text: The complete coding sequences of HIV-1 tat (GenBank Accession No. X07861) and rev (GenBank Accession No. M34378) were cloned into pcDNA3.1 expression vectors containing G418 and hygromycin resistance genes, respectively. The complete coding sequence of the HIV-1 (HXB2 strain) gp160 envelope gene (nucleotide bases 6225-8795 of GenBank Accession No. K03455) was cloned into plasmid pCRII-TOPO. The three HIV genes were additionally inserted into the baculovirus shuttle vector, pFastBacMam1, under the transcriptional control of the CMV promoter. A construction of the pHIV-1 LTR containing mutated NFkB sequences linked to the luciferase reporter gene was prepared by digesting pcDNA3.1, containing the G418 resistance gene, with Nru I and Bam HI to remove the CMV promoter. LTR-luc was then cloned into the Nru I/Bam HI sites of the plasmid vector. Plasmid preparations were performed after the plasmids were amplified in Escherichia coli strain DH5-alpha. The fidelity of the inserted sequences was confirmed by double-strand nucleotide sequencing using an ABI Prism Model 377 automated sequencer.
Recombinant BacMam baculoviruses were constructed from pFastBacMam shuttle plasmids by using the bacterial cell-based Bac-to-Bac system. Viruses were propagated in Sf9 (Spodoptera frugiperda) cells cultured in Hink's TNM-FH Insect media supplemented with 10% (v/v) fetal bovine serum and 0.1% (v/v) pluronic F-68 according to established protocols.
Human osteosarcoma (HOS) cells that naturally express human CXCR4 were transfected with human CCR5, human CD4 and the pHIV-LTR-luciferase plasmid using FuGENE 6 transfection reagent. Single cells were isolated and grown under selection condition in order to generate a stable HOS (hCXCR4/hCCR5/hCD4/pHIV-LTR-luciferase) clonal cell line. The cells were maintained in Dulbeccos modified Eagles media supplemented with 10% fetal calf serum (FCS), G418 (400 ug/ml), puromycin (1 ug/ml), mycophenolic acid (40 ug/ml), xanthine (250 ug/ml) and hypoxanthine (13.5 ug/ml) to maintain a selection pressure for cells expressing the LTR-luciferase, hCCR5 and hCD4, respectively. Human embryonic kidney (HEK-293) cells stably transfected to express the human macrophage scavenging receptor (Class A, type 1; GenBank Accession No. D90187), were maintained in DMEM/F-12 media (1:1) supplemented with 10% FCS and 1.5 ug/ml puromycin. The expression of this receptor by the HEK-293 cells enhances their ability to stick to tissue culture treated plasticware.
HEK-293 cells were harvested using enzyme-free cell dissociation buffer. The cells were resuspended in DMEM/F-12 media supplemented with 10% FCS and 1.5 ug/ml and counted. Tranductions were performed by direct addition of BacMam baculovirus containing insect cell media to cells. The cells were simultaneously transduced with BacMam baculovirus expressing HIV-1 tat, HIV-1 rev and HIV-1 gp160 (from the HXB2 HIV strain). Routinely an MOI of 10 of each virus was added to the media containing the cells. 2 mM butyric acid was also added to the cells at this stage to increase protein expression in transduced cells. The cells were subsequently mixed and seeded into a flask at 30 million cells per T225. The cells were incubated at 37° C., 5% CO2, 95% humidity for 24 h to allow for protein expression.
HEK and HOS cells were harvested in DMEM/F-12 media containing 2% FCS and DMEM media containing 2% FCS, respectively, with no selection agents added. Compounds were plated as 1 ul spots in 100% DMSO on a 96-well CulturPlate plates. HOS cells (50 ul) were added first to the wells, followed immediately by the HEK cells (50 ul). The final concentration of each cell type was 20,000 cells per well. Following these additions, the cells were returned to a tissue culture incubator (37° C.; 5% CO2/95% air) for an additional 24 h.
Following the 24 h incubation, total cellular luciferase activity was measured using the LucLite Plus assay kit (Packard, Meridien, Conn.). […]

[2] = Compound cytotoxicity in HOS cells in the absence of virus (CellTiter-Glo); conditions: human, no virus, read-out: Cytotox (pIC50) (converted)
Experimental: Compounds were profiled against two HIV-1 viruses, the M-tropic (CCR5 utilizing) Ba-L strain and the T-tropic (CXCR4 utilizing) IIIB strain. Both viruses were propagated in human peripheral blood lymphocytes. Compounds were tested for there ability to block infection of the HOS cell line (expressing hCXCR4/hCCR5/hCD4/pHIV-LTR-luciferase) by either HIV-1 Ba-L or HIV-1 IIIB. Compound cytotoxicity was also examined in the absence of virus addition.
HOS cells (expressing hCXCR4/hCCR5/hCD4/pHIV-LTR-luciferase) were harvested and diluted in Dulbeccos modified Eagles media supplemented with 2% FCS and non-essential amino acid to a concentration of 60,000 cells/ml. The cells were plated into 96-well plates (100 ul per well) and the plates were placed in a tissue culture incubator (37° C.; 5% CO2/95% air) for a period of 24 h.
Subsequently, 50 ul of the desired drug solution (4 times the final concentration) was added to each well and the plates were returned to the tissue culture incubator (37° C.; 5% CO2/95% air) for 1 h. Following this incubation 50 ul of diluted virus was added to each well (approximately 2 million RLU per well of virus). The plates were returned to the tissue culture incubator (37° C.; 5% CO2/95% air) and were incubated for a further 96 h.
Following this incubation the endpoint for the virally infected cultures was quantified following addition of Steady-Glo Luciferase assay system reagent (Promega, Madison, Wis.). Cell viability or non-infected cultures was measured using a CellTiter-Glo luminescent cell viability assay system (Promega, Madison, Wis.). All luminescent readouts are performed on a Topcount luminescence detector (Packard, Meridien, Conn.).

CXCR4 receptor = target: T1, CXCR4 receptor (Homo sapiens, UniProt P61073); experiment: Functional FLIPR assay (block of SDF-1 alpha induced [Ca2+]i change); conditions: HEK-293 cells, human CXCR4 BacMam and Gqi5 BacMam, read-out: Functional assay (pIC50) (converted)
T1 construct: expressed in transfected cells; host or cells: HEK-293 cells (stably expressing human macrophage scavenger receptor) transduced with human CXCR4 BacMam and Gqi5 BacMam
T1 sequence (P61073 whole entry): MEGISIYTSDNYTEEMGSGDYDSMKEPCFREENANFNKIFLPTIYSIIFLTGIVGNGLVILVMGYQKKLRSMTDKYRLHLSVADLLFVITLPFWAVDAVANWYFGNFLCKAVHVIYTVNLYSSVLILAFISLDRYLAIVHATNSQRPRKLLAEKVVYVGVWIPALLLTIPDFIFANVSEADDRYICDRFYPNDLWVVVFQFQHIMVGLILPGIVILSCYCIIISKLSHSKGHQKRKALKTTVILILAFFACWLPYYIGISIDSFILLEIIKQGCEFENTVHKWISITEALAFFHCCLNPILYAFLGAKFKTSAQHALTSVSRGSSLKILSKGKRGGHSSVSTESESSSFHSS
Experimental: Human embryonic kidney (HEK-293) cells were maintained and harvested as described above. Cells were plated in 96-well, black clear bottom, poly-lysine coated plates at a concentration of 40,000 cells per well in a final volume of 100 ul containing human CXCR4BacMam (MOI=25) and Gqi5 BacMam (MOI=12.5). The cells were incubated at 37° C., 5% CO2, 95% humidity for 24 h to allow for protein expression.
After the required incubation time the cells were washed once with 50 ul of fresh serum-free DMEM/F12 media containing probenicid. 50 ul of dye solution was then added to the cells (Calcium Plus Assay Kit Dye; Molecular Devices) was dissolved in 200 ml of the above probenicid/BSA containing media and incubated for 1 h. Cell plates were transferred to a Fluorometric Imaging Plate Reader (FLIPR). Upon addition the effect of the compounds on the change in [Ca^2+]i was examined to determine if the compounds were agonists or antagonists (ability to block SDF-1 alpha activity) at the CXCR4 receptor. IC50 values are determined and pKb values are calculated using the Leff and Dougall equation: KB═IC50/((2+([agonist]/EC50̂b)̂1/b−1) Where IC50 is that defined by the antagonist concentration-response curve [agonist)] is the EC80 concentration of agonist used EC50 is that defined by the agonist concentration-response curve b is the slope of the agonist concentration-response curve.

HIV-1 IIIB = experiment: HOS HIV-1 infectivity assay
Procedure, shortened: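 Engineered HOS reporter cells in 2% FCS medium received compound 1 h ahead of HIV-1 (~2 million RLU/well). Cultures ran 96 h at 37 °C before luciferase quantitation; parallel uninfected wells were scored for viability by CellTiter-Glo.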

[3] = Human immunodeficiency virus 1, IIIB, as determined by the infectivity assay, strain not stated in Table 2, read-out: Activity Level
[4] = Human immunodeficiency virus 1, T-tropic (CXCR4 utilizing) IIIB strain, HOS cells, 96 h, read-out: HOS (3B)

## CN1CCC(Cn2c(CN(C)C3CCCc4cccnc43)nc3ccccc32)C1 (stereo not drawn) [Example 8d, N-Methyl-N-({1-[(1-methyl-3-pyrrolidinyl)methyl]-1H-benzimidazol-2-yl}methyl)-5,6,7,8-tetrahydro-8-quinolinamine]
[1]
  IC50: 74.1 nM
[2]
  IC50 at 96 h: > 100000 nM
CXCR4 receptor
  IC50: 74.1 nM
HIV-1 IIIB; [3]
  IC50: < 100 nM
HIV-1 IIIB; [4]
  IC50: 57 nM

## CN1CC(Cn2c(CN(C)C3CCCc4cccnc43)nc3ccccc32)C1 (stereo not drawn) [Example 10e, N-Methyl-N-({1-[(1-methyl-3-azetidinyl)methyl]-1H-benzimidazol-2-yl}methyl)-5,6,7,8-tetrahydro-8-quinolinamine]
[1]
  IC50: 91.2 nM
[2]
  IC50 at 96 h: > 100000 nM
CXCR4 receptor
  IC50: 117 nM
HIV-1 IIIB; [3]
  IC50: < 100 nM
HIV-1 IIIB; [4]
  IC50: 66 nM

## CN1CCN(CCCn2c(CN(C)C3CCCc4cccnc43)nc3ccccc32)CC1 (stereo not drawn) [Example 9, N-Methyl-N-({1-[3-(4-methyl-1-piperazinyl)propyl]-1H-benzimidazol-2-yl}methyl)-5,6,7,8-tetrahydro-8-quinolinamine]
[1]
  IC50: 166 nM
[2]
  IC50 at 96 h: > 100000 nM
CXCR4 receptor
  IC50: 135 nM
HIV-1 IIIB; [3]
  IC50: < 100 nM
HIV-1 IIIB; [4]
  IC50: 93 nM

## CN(Cc1nc2ccccc2n1Cc1ccc(CN)cc1)C1CCCc2cccnc21 (stereo not drawn) [Example 14, N-[(1-{[4-(Aminomethyl)phenyl]methyl}-1H-benzimidazol-2-yl)methyl]-N-methyl-5,6,7,8-tetrahydro-8-quinolinamine]
[1]
  IC50: 708 nM
[2]
  IC50 at 96 h: > 100000 nM
CXCR4 receptor
  IC50: 282 nM
HIV-1 IIIB; [3]
  IC50: 500 to 10000 nM
HIV-1 IIIB; [4]
  IC50: 985 nM

## CN(Cc1nc2ccccc2n1Cc1ccc(CNCc2ccccn2)cc1)C1CCCc2cccnc21 (stereo not drawn) [Example 12, N-Methyl-N-({1-[(4-{[(2-pyridinylmethyl)amino]methyl}phenyl)methyl]-1H-benzimidazol-2-yl}methyl)-5,6,7,8-tetrahydro-8-quinolinamine]
[1]
  IC50: 575 nM
[2]
  IC50 at 96 h: > 100000 nM
CXCR4 receptor
  IC50: 224 nM
HIV-1 IIIB; [3]
  IC50: 100 to 500 nM
HIV-1 IIIB; [4]
  IC50: 376 nM

## CN(C)CCCCCn1c(CN(C)C2CCCc3cccnc32)nc2ccccc21 (stereo not drawn) [Example 17, N-({1-[5-(Dimethylamino)pentyl]-1H-benzimidazol-2-yl}methyl)-N-methyl-5,6,7,8-tetrahydro-8-quinolinamine]
[1]
  IC50: 324 nM
[2]
  IC50 at 96 h: > 100000 nM
CXCR4 receptor
  IC50: 204 nM
HIV-1 IIIB; [3]
  IC50: 100 to 500 nM
HIV-1 IIIB; [4]
  IC50: 251 nM

## CN(C)CCCn1c(CN(C)C2CCCc3cccnc32)nc2ccccc21 (stereo not drawn) [Example 15c, N-({1-[3-(Dimethylamino)propyl]-1H-benzimidazol-2-yl}methyl)-N-methyl-5,6,7,8-tetrahydro-8-quinolinamine]
[1]
  IC50: 16.6 nM
[2]
  IC50 at 96 h: > 100000 nM
CXCR4 receptor
  IC50: 17 nM
HIV-1 IIIB; [3]
  IC50: < 100 nM
HIV-1 IIIB; [4]
  IC50: 23 nM

## CN(Cc1nc2ccccc2n1CCN1CCOCC1)C1CCCc2cccnc21 (stereo not drawn) [Example 5, N-Methyl-N-({1-[2-(4-morpholinyl)ethyl]-1H-benzimidazol-2-yl}methyl)-5,6,7,8-tetrahydro-8-quinolinamine]
[1]
  IC50: 200 nM
[2]
  IC50 at 96 h: > 100000 nM
CXCR4 receptor
  IC50: 123 nM
HIV-1 IIIB; [3]
  IC50: 100 to 500 nM
HIV-1 IIIB; [4]
  IC50: 225 nM

## CN(Cc1nc2ccccc2n1CC1CCNCC1)C1CCCc2cccnc21 (stereo not drawn) [Example 6, N-Methyl-N-{[1-(4-piperidinylmethyl)-1H-benzimidazol-2-yl]methyl}-5,6,7,8-tetrahydro-8-quinolinamine]
[1]
  IC50: 240 nM
[2]
  IC50 at 96 h: > 100000 nM
CXCR4 receptor
  IC50: 282 nM
HIV-1 IIIB; [3]
  IC50: < 100 nM
HIV-1 IIIB; [4]
  IC50: 90 nM

## CN(Cc1nc2ccccc2n1CCCNCc1ccccn1)C1CCCc2cccnc21 (stereo not drawn) [Example 16, N-Methyl-N-[(1-{3-[(2-pyridinylmethyl)amino]propyl}-1H-benzimidazol-2-yl)methyl]-5,6,7,8-tetrahydro-8-quinolinamine]
[1]
  IC50: 148 nM
[2]
  IC50 at 96 h: > 100000 nM
CXCR4 receptor
  IC50: 58.9 nM
HIV-1 IIIB; [3]
  IC50: 100 to 500 nM
HIV-1 IIIB; [4]
  IC50: 121 nM

## CN(Cc1nc2ccccc2n1CCN1CCCCC1)C1CCCc2cccnc21 (stereo not drawn) [Example 4, N-Methyl-N-({1-[2-(1-piperidinyl)ethyl]-1H-benzimidazol-2-yl}methyl)-5,6,7,8-tetrahydro-8-quinolinamine]
[1]
  IC50: 138 nM
[2]
  IC50 at 96 h: > 100000 nM
CXCR4 receptor
  IC50: 60.3 nM
HIV-1 IIIB; [3]
  IC50: 100 to 500 nM
HIV-1 IIIB; [4]
  IC50: 156 nM

## NCCCn1c(CN(Cc2ccccc2)C2CCCc3cccnc32)nc2ccccc21 (stereo not drawn) [Example 21, N-{[1-(3-Aminopropyl)-1H-benzimidazol-2-yl]methyl}-N-(phenylmethyl)-5,6,7,8-tetrahydro-8-quinolinamine]
[1]
  IC50: 1320 nM
[2]
  IC50 at 96 h: > 100000 nM
CXCR4 receptor
  IC50: 288 nM
HIV-1 IIIB; [3]
  IC50: 500 to 10000 nM
HIV-1 IIIB; [4]
  IC50: 595 nM
